The values that follow come from patent US20110236504A1, “VERSATILE DISINFECTANT” (priority 2008, published 2011).

Values joined by “and” are separate entries in the source; they are usually repeats but may differ in a detail not shown here. Equal values may be shown once. Read-outs that look alike come from different tables or passages of the source.

Assay [1] in a line: Investigation of aqueous L-ascorbic acid solution. It is filed as cell-based. The text has this:
L-ascorbic acid (vitamin C) is essential for a living body and well fitted to body tissues. Addition of a small amount of L-ascorbic acid increases affinity to cellular tissues.

The subject of assay [2] is viable bacteria in sputum. Nature of the assay: Sterilization effect on specimen: sputum. The conditions noted are these: Sputum 2 × 10^9/g.
Assay [3] deals with pus mainly including antibiotic resistant MRSA. The conditions noted are these: Pus (MRSA) 4 × 10^9/g.
The test system of assay [4] is pus mainly including antibiotic resistant Pseudomonas aeruginosa (MDRP). The conditions noted are these: Pus (MDRP) 5 × 10^9/g.
The test system of assay [5] is viable bacteria on skin surface. In words: Application on hand skin, swab method. It is filed as in vivo. The conditions noted are these: for The number of viable bacteria on skin surface, relative value: before application = 100. Here is the method:
The disinfectant prepared in Preparation Example 3 was applied. Immediately after that, an area of 10 cm^2 was wiped with sterile gauze that was immersed into sterile physiological saline. Then, the number of bacteria was counted (Swab method). Next, different areas each having an area of 10 cm^2 were wiped in the applied area after 15 minutes, after 30 minutes, and after 60 minutes, and the viability of bacteria on the skin was determined. As controls, tap water and 70% ethanol were used. The number of bacteria before the application of disinfectants is regarded as 100 and relative values are shown.

For assay [6], the system named is spores of Clostridium species. In words: Spore decay time and decay rate in dried soil, anaerobic culture. The conditions noted are these: for Spore decay rate, Spores of Clostridium species: 1 g dried soil in 10 ml, anaerobic culture. It is filed as cell-based. Here is the method:
(§1) Sands in a sandbox in a park and riverside soil were collected and mixed. The mixture was dried with heated air at 80 to 90° C. for 6 hours. Then, 1 g of the dried mixture was added into water and immediately filtered with a filter. A part of the filtrate was applied onto a glass slide, and spores were stained in a common procedure. The number of stained spores was counted and the number of spores contained in 1 g of soil was determined. Simultaneously, the spores were aerobically (Bacillus species proliferated) and anaerobically (Clostridium species proliferated) cultured, and each ratio was determined.
(§2) Then, into 10 ml of the sample disinfectant, 1 g of the dried soil was added. Some of the mixture was collected with time, and cultured aerobically and anaerobically. The number of growing colonies was counted to determine the decay rate of the spores.

In assay [7] the test system is intestinal bacteria in feces. In words: Sterilization effect on specimen: feces. The conditions noted are these: for The number of viable bacteria in specimen: Feces 1.5 × 10^11/g.
Assay [8] deals with spores of Bacillus species. Nature of the assay: Spore decay time and decay rate in dried soil, aerobic culture. It is filed as cell-based. The conditions noted are these: for Spore decay rate, Spores of Bacillus species: 1 g dried soil in 10 ml, aerobic culture. Here is the method:
as §1, §2

Assay [9] concerns viable bacteria in saliva. Nature of the assay: Effect of gargle, viable bacteria in saliva. It is filed as in vivo, persons. The conditions noted are these: for number of viable bacteria in saliva, relative value: before gargle = 100, one value per person. The procedure:
Next, the efficacy of the disinfectant was examined when it is used for a gargle. The number of viable bacteria was counted in 1 ml of saliva that was collected from each of three persons before a gargle. Then, each person gargled three times each for 20 seconds, that is, gargled for total of 1 minute, with the disinfectant of the present invention that was prepared in Preparation Example 6. Each saliva was collected immediately after the gargle and at 15 minutes, 30 minutes, and 60 minutes after the gargle. The number of viable bacteria was counted per 1 ml of the saliva, and the effect of gargle was determined. Here, the number of viable bacteria before gargle is regarded as 100, and relative values are shown.
As a control, each of two persons was gargled with tap water or 1000 ppm povidone-iodine in a similar way.

As for `O=C1O[C@H]([C@@H](O)CO)C(O)=C1O` [L-ascorbic acid], in assay [1], the “antimicrobial activity of aqueous solution itself” value is “almost no antimicrobial activity”.

Regarding `CCO` [70% Ethanol, ethanol], the “The number of viable bacteria in specimen” value (from here on “The number … in specimen”) was determined as 1e+08 g⁻¹ in [2] (5 min after addition); 2e+07 g⁻¹ in [2] (15 min after addition); 6e+06 g⁻¹ in assay [2] (30 min after addition); 5e+06 g⁻¹ in assay [2] (60 min after addition); 5e+06 g⁻¹ in assay [2] (60 min after addition, listed as 70% ethanol); 5e+07 g⁻¹ in assay [3] (5 min after addition). The “The number … in specimen” value in assay [3] (15 min after addition) is 200000 g⁻¹; in assay [3] (30 min after addition) it was 80000 g⁻¹; in [3] (60 min after addition), 50000 g⁻¹; in [4] (5 min after addition), 7e+07 g⁻¹; in assay [4] (15 min after addition) it was 500000 g⁻¹; in assay [4] (30 min after addition), 10000 g⁻¹. The “The number … in specimen” value in assay [4] (60 min after addition) stood at 10000 g⁻¹; in assay [7] (5 min after addition), 5e+06 g⁻¹; in assay [7] (15 min after addition), 3000 g⁻¹; in assay [7] (30 min after addition), 4e+10 g⁻¹; in assay [7] (60 min after addition), 4e+16 g⁻¹. Besides, the “number of bacteria on skin relative to before application” value in [5] (after 60 minutes) is listed as 45%. In addition, the “The number of viable bacteria on skin surface, relative value” is given as 12 in [5] (after 15 min); 20 in [5] (after 30 min); 45 in assay [5] (after 60 min); 0 in assay [5] (immediately after); “no bacteria was observed” in assay [5] (immediately after, listed as 70% ethanol). Further, the “effect on the spores” value in assay [6] and in [8] was “no effect” in each case. For the same compound, the “Spore decay rate, Spores of Clostridium species” value in assay [6] (1 min contact), in [6] (5 min contact), in [6] (10 min contact), in [6] (30 min contact), in assay [6] (60 min contact) and in assay [6] (120 min contact) was 0% each time. Further, the “effect on bacteria in feces” value in assay [7] (feces) is listed as “only slightly decreased”. The “Spore decay rate, Spores of Bacillus species” value in assay [8] (1 min contact), in [8] (5 min contact), in [8] (10 min contact), in [8] (30 min contact), in [8] (60 min contact) and in assay [8] (120 min contact) was 0% each time.

povidone-iodine: the “number of bacteria in saliva relative to before gargle” value in assay [9] (after 60 minutes) was 30 to 40%; in [9] (immediately after the gargle), 2%. The “number of viable bacteria in saliva, relative value” in assay [9] (after 15 min) was 5 and 8; in assay [9] (after 30 min), 18 and 20; in assay [9] (after 60 min), 30 and 40; in assay [9] (immediately after gargle), 2.
